For assay [1], the species on record is Homo sapiens. In words: Selectivity ratio of IC50 for human RGS4 expressed in Escherichia coli BL21 (DE3) to IC50 for human RGS16 expressed in Escherichia coli BL21 (DE3).
The species entered for assay [2] is Homo sapiens. The assay can be described thus: Selectivity ratio of IC50 for human RGS4 expressed in Escherichia coli BL21 (DE3) to IC50 for human RGS8 expressed in Escherichia coli BL21 (DE3).
The target of assay [3] is Regulator of G-protein signaling 4 (Homo sapiens) (UniProt P49798). In words: Inhibition of RGS4 GTPase accelrating activity.
Chain of Regulator of G-protein signaling 4 (Homo sapiens) (P49798 whole entry, looked up): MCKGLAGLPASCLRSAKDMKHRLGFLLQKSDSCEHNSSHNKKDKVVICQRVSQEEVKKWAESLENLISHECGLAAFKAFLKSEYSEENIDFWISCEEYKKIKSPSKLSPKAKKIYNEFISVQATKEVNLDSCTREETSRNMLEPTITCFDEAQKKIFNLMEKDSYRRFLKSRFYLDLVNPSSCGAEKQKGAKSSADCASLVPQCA
A short description of assay [4]: Selectivity for RGS4 over RGS16.
Assay [5] is described as follows: Selectivity for RGS4 over RGS8.

Among the data in ChEMBL document CHEMBL1914297, “Regulators of G protein signaling (RGS) proteins as drug targets: modulating G-protein-coupled receptor (GPCR) signal transduction” (J Med Chem, 2011) are Ratio IC50, INH and Selectivity ratio values, retold here.

Where a SMILES comes first, the peptide text is derived from it. Bridges are numbered along the chain shown (N, C = ends).

With `Cc1cccn2c(=O)c(/C=C(\C#N)c3nc4ccccc4s3)c(Oc3ccc(F)cc3)nc12`, the Ratio IC50 in assay [1] and in assay [2] was 10 in each case.
For `CC[C@H](C)[C@@H]1NC(=O)CNC(=O)[C@H]([C@@H](C)O)NC(=O)[C@@H](NC(=O)[C@H](CCCCN)NC(=O)[C@@H](NC(C)=O)C(C)C)CSSC[C@@H](C(=O)N[C@@H](CCC(=O)O)C(N)=O)NC1=O` (Ac-VKCTGICE-NH2; disulfide 3-7), the INH in assay [3] was determined as 26 µM.
Turning to `Cc1cccc(Oc2nc3c(C)cccn3c(=O)c2/C=C(\C#N)c2nc3ccccc3s2)c1`, the Ratio IC50 in assay [1] and in assay [2] was 10 throughout.
For `Cc1ccc(-n2sc(=O)n(Cc3ccc(F)cc3)c2=O)cc1`, the Selectivity ratio in assay [4] and in assay [5] was 100 in each case.
